Data reported in publication PMC8560897, “Bioevaluation and Targeted Modification of Temporin-FL From the Skin Secretion of Dark-Spotted Frog (Pelophylax nigromaculatus)” (Frontiers in Molecular Biosciences, 2021).
No end group written: not given here.

Key:
MRSA ATCC 43300 biofilm = type: cell-based, Methicillin-resistant Staphylococcus aureus; details: ATCC 43300, 48 h
Description: (§1) We evaluated the antibiofilm activity of the three AMPs by applying a crystal violet staining assay following previous research with minor modifications ([Chen et al., 2018]), to determine the minimal biofilm inhibitory concentrations (MBICs) and the minimal biofilm eradication concentrations (MBECs). The tested MRSA bacterial strains (NCTC 12493 and ATCC 43300) were incubated and diluted with MHB to achieve a bacterial concentration of 5 × 10^5 CFU/ml. The peptides were undergone a 2-fold dilution and were incubated with diluted MRSA to determine MBIC values. For the MBEC assay, the diluted bacterial culture was incubated for 48 h to obtain a fully grown biofilm, which was treated with various concentrations of peptides dissolved in MHB and incubated for 24 h at 37°C. The positive control in MBIC and MBEC determination is 0.2 mg/ml vancomycin for MRSA ATCC 43300 strain and the aliquote of norfloxacin for MRSA NCTC 12493.

MRSA NCTC 12493 biofilm = type: cell-based, Methicillin-resistant Staphylococcus aureus; details: NCTC 12493, 48 h
Description: as §1

[1] = test system: defibrinated erythrocytes isolated from whole horse blood; type: cell-based; details: red cells of horse
Source text: Following a previous study ([Huang et al., 2017]), we evaluated the hemolytic activity of three peptides using defibrinated erythrocytes isolated from whole horse blood (TCS Biosciences Ltd., Buckingham, United Kingdom). Phosphate-buffered saline (PBS) and 1% Triton X-100 were used as negative and positive controls, respectively, and 1% DMSO/PBS was used as the vehicle control. The HC50 and the therapeutic index (TI = HC50/the geometric mean of MICs against tested bacterial strains of peptide) were calculated to determine the therapeutic potential.

MRSA ATCC 43300 [2] = type: cell-based, Methicillin-resistant Staphylococcus aureus; details: not told
Description: The bactericidal activity of cationic peptides resulted from membrane disruption. DNA or RNA that leaked out of the cell was stained with SYTOX™ Green Nucleic Acid Stain (Invitrogen Life Technologies, Carlsbad, CA, United States). The MRSA ATCC 43300 bacterial strain was used to evaluate the membrane disruptive potency of the three peptides. The assay was performed according to the procedure described previously with some modifications ([Chen et al., 2018]). Peptides at different concentrations (4 × MIC, 2 × MIC and 1 × MIC) were incubated with the re-suspended bacterial solution at a concentration of 5 × 10^6 CFU/well in the 96-well black plate for 3 h without light. The positive control is 70% isopropanol. SYTOX green dye (the final concentration of 1%) was then added to each well, and the permeabilizing potency was measured as fluorescent intensity using a SpeactraMax i3x plate reader (Molecular Devices, CA, United States). All experiments were done in five replicates for statistical significance.

MRSA ATCC 43300 [3] = type: cell-based, Methicillin-resistant Staphylococcus aureus; details: ATCC 43300, 18 h
Description: (§2) Antimicrobial activity was evaluated by assessing minimal inhibitory concentrations (MICs) and minimal bactericidal concentrations (MBCs). The tested microorganisms comprised three Gram-positive bacterial strains, namely S. aureus (NCTC 10788) and MRSA strains (NCTC 12493 and ATCC 43300), E. coli (NCTC 10418), which is a Gram-negative bacterial strain, and C. albicans (NCYC 1467), a yeast species. Standard microbes were cultured in Muller-Hinton Broth (MHB) and suspended to obtain 5 × 10^5 CFU/ml. Subsequently, the equal volume microorganisms solutions were treated with a 2-fold dilution of peptides, the final concentration of the peptides ranged between 512 and 1 μM. The positive control of bacteria strains S. aureus, MRSA NCTC 12493 and E. coli is 0.2 mg/ml norfloxacin, 16 μM mellitin was used as C. albicans positive control and 0.2 mg/ml vancomycin as a positive control in ATCC 43300 MRSA strains. The solutions were incubated in 96-well plates used for measuring MICs followed for 18 h. The MBC values were assessed based on observations of the colony cultured on Muller-Hinton agar (MHA). The antimicrobial assay was performed in triplicate following the procedure applied in previous studies described ([Huang et al., 2017]).

MRSA NCTC 12493 = type: cell-based, Methicillin-resistant Staphylococcus aureus; details: NCTC 12493, 18 h
Description: as §2

in vitro = type: cell-based; details: human
Description: Human keratinocyte cell line HaCaT (No.1101HUM-PUMC000373) was obtained from the National Infrastructure of Cell Line Resource (Beijing, China) and cultured in high-glucose Dulbecco’s modified Eagle medium (DMEM), containing 10% fetal bovine serum (FBS) and 1% penicillin and streptomycin (Thermo Fisher Scientific Co., Waltham, MA, United States). The grown cells were digested and quantificationally harvested in a 96-wells plate of cell density of 5 × 10^4×cells/ml. After 24 h incubation, the original medium in wells was replaced with fresh medium containing peptides with 2-fold serial dilution, the final concentrations of peptides ranging from […] to 1 μM. When the cells were treated with peptides for 24 h, the cell medium was changed into 100 μl of 10% CCK-8 solution and incubated for 4 h. The absorbance at 450 nm reflected the cell viability in each well. The growth control was cell culture without peptides and blank control was fresh DMEM without cells.

S. aureus (NCTC 10788) = type: cell-based, Staphylococcus aureus; details: NCTC 10788, 18 h
Description: as §2

E. coli (NCTC 10418) = type: cell-based; details: for Antimicrobial activity MBC / Antimicrobial activity MIC: NCTC 10418, 18 h
Description: as §2

C. albicans (NCYC 1467) = type: cell-based; details: NCYC 1467, 18 h
Description: as §2

[4] = test system: MRSA (ATCC 43300) biofilm; test: Scanning electron microscopy of MRSA biofilms; type: cell-based, Methicillin-resistant Staphylococcus aureus; details: 1 × MBEC, 24 h
Description: Silicon wafers were cut into small squares (5 mm × 5 mm) and placed at the bottom of a 24-well plate. Each well was then filled with 1 ml of sub-cultured MRSA (ATCC 43300) in MHB at a concentration of 5 × 10^5 CFU/ml and incubated at 37°C in a humid shaking incubator for 48 h to enable the formation of visible biofilms on the silicon wafers. Peptides at concentrations of 1 × MBEC and 4 × MBEC were incubated with PBS-washed MRSA biofilm for 24 h. After the incubation, the silicon wafer in each well was first washed in PBS and then fixed in 2.5% glutaraldehyde at 4°C for 4 h. The fixed biofilm was dehydrated using gradient ethanol solution (30, 50, 70, 80, 90, 95, and 100%) at 10-min intervals. The air-dried biofilm samples were coated with gold film using a LEICA-EM-ACE600 sputter coater instrument (Leica, Germany) and transferred to the field emission scanning electron microscopy (FESEM) system (ZEISS-SUPRA55, Germany) operating at 5 kV to observe the morphology of the peptide-treated biofilm.

[5] = Circular-dichroism spectroscopy, helix content (BESTSEL); type: physicochemical; details: CD
Description: The physiochemical structural analysis entailed website prediction and circular-dichroism (CD) spectroscopy as described previously ([Liu et al., 2017]; [Sang et al., 2018]; [Zhou et al., 2019]). Briefly, temporin-FL and two analogues were dissolved in 10 mM NH4Ac or 10 mM NH4Ac with 50% 2,2,2-trifluoroethanol (TFE) to determine their conformation in different solutions. The 10 mM NH4Ac solution provides a pH stable buffering environment to stabilize peptides and also to prevent system noise and not interfere with CD signals. The results of the CD spectroscopy were inputted into the BESTSEL CD spectrum online analysis tool (http://bestsel.elte.hu/index.php). HeliQuest (https://heliquest.ipmc.cnrs.fr/), and I-Tasser (http://zhanglab.ccmb.med.umich.edu/I-TASSER) were respectively used to determine the helical wheels plots and to predict the 3D secondary structure.

[6] = test system: MRSA (ATCC 43300) biofilm formation; test: Quantitative biofilm formation assay; type: cell-based, Methicillin-resistant Staphylococcus aureus
Description: Based on the previous study of quantitative biofilm formation assay ([Badmasti et al., 2015]; [Liu et al., 2020]), the crystal violet staining method with moderate modifications was applied for analyzing the capability of MRSA (ATCC 43300) forming biofilms when treated with different concentrations of peptides. Specifically, MRSA strain was cultured in MHB medium at 37°C overnight. Then the bacterial culture was subcultured in fresh MHB medium. The quantificational bacterial suspension (5 × 10^5 CFU/ml) was added into a 96-wells plate together with the tested peptides at different concentrations (2 × MBIC, 1 × MBIC, 1/2 × MBIC and 1/4 × MBIC). The MHB medium without bacteria was negative control and MRSA culture solution was the positive control. The cut-off optical density (ODc) was the mean ± deviation value of the absorbance of negative control at 595 nm. The biofilm formation ability of bacteria samples with different concentrations of peptides were divided into four groups: the negative biofilm formation (−) was the OD595nm ≤ ODc, the weak biofilm formation (+) was the ODc < OD595nm ≤ 2 × ODc, the moderate biofilm formation (++) represented the 2 × ODc < OD595nm ≤ 4 × ODc, and the strong biofilm formation (+++) indicated the OD595nm > 4 × ODc.

[7] = test system: tested Gram-positive bacterial strains and fungi; type: cell-based; details: 18 h
Description: as §2

Row | Substance | Antibiofilm activity MBEC (MRSA ATCC 43300 biofilm) | Antibiofilm activity MBIC (MRSA ATCC 43300 biofilm) | Antibiofilm activity MBEC (MRSA NCTC 12493 biofilm) | Antibiofilm activity MBIC (MRSA NCTC 12493 biofilm) | Hemolysis effect HC50 [1] | Membrane permeability ranking among the three peptides (MRSA ATCC 43300 [2]) | Membrane permeabilization, SYTOX Green fluorescent intensity (MRSA ATCC 43300 [2]) | Antimicrobial activity MBC (MRSA ATCC 43300 [3]) | Antimicrobial activity MIC (MRSA ATCC 43300 [3]) | Antimicrobial activity MBC (MRSA NCTC 12493) | Antimicrobial activity MIC (MRSA NCTC 12493) | IC50 at 24 h (in vitro) | Antimicrobial activity MBC (S. aureus (NCTC 10788)) | Antimicrobial activity MIC (S. aureus (NCTC 10788)) | Antimicrobial activity MBC (E. coli (NCTC 10418)) | Antimicrobial activity MIC (E. coli (NCTC 10418)) | Antimicrobial activity MBC (C. albicans (NCYC 1467)) | Antimicrobial activity MIC (C. albicans (NCYC 1467)) | also measured
1 | FIPLVSGLFKLL-NH2 [Temporin-FLa, FIPLVSGLFKLL-NH2] | 8 µM | 4 µM | 32 µM | 8 µM | 74.02 µM | greatest permeability | highest fluorescent intensity | 8 µM | 4 µM | 16 µM | 4 µM | 46.6 µM | 8 µM | 4 µM | 128 µM | 128 µM | 32 µM | 8 µM | 
2 | H-FIPLVSGLFSKLL-NH2 [Temporin-FL, FIPLVSGLFSKLL-NH2] | 64 µM | 32 µM | 64 µM | 32 µM | 157.4 µM | moderate permeabilizing activity | relatively weak | 32 µM | 32 µM | 64 µM | 32 µM | 83.4 µM | 16 µM | 16 µM | 128 µM | 128 µM | 64 µM | 32 µM | Biofilm disruption observed by SEM [4]: moderate bacterial colonies reduction; Helix in NH4Ac ([5]; 10 mM NH4Ac): 16.7%; Helix in 50%TFE/NH4Ac ([5]; 10 mM NH4Ac with 50% TFE): 92.3%; Biofilm formation ([6]; MRSA ATCC 43300, peptide at 1/2× MBIC): ++ (the moderate biofilm formation (++) represented the 2 × ODc < OD595nm ≤ 4 × ODc); Biofilm formation ([6]; MRSA ATCC 43300, peptide at 1/4× MBIC): ++ (the moderate biofilm formation (++) represented the 2 × ODc < OD595nm ≤ 4 × ODc); Activity against Gram-negative bacteria E. coli (in words) (E. coli (NCTC 10418); E. coli): inactive; MICs against tested Gram-positive bacterial strains and fungi [7]: 16 to 32 µM
3 | FIPVSGLFKLL-NH2 [Temporin-FLb, FIPVSGLFKLL-NH2] | 128 µM | 64 µM | 128 µM | 64 µM | 356.0 µM | lowest | relatively weak | 128 µM | 64 µM | 32 µM | 16 µM | 375 µM | 16 µM | 8 µM | 128 µM | 128 µM | 128 µM | 32 µM | 
